Measurements: patent US9346812B2, “Substituted pyrrolopyrimidine compounds, compositions thereof, and methods of treatment therewith” (Signal Pharmaceutical LLC, priority 2013, dated 2016)

System: CAL51 cell proliferation
Test: Cell Titer Glo Proliferation Assay (CAL51)
Format: cell-based, human
Details: Homo sapiens, CAL-51; CAL51 cell proliferation, 72 h, Cell Titer Glo luminescence; read-out: Act. Level
Summary of the method: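 Viability is measured by CellTiter-Glo luminescence after 72 h of compound exposure. CAL51 cells were seeded in growth medium with 10% FBS and 2 mM glutamine, cultured overnight, then dosed with compound dilutions, vehicle held at 0.2% DMSO.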

First: COc1cc(C(=O)N2CCOCC2)ccc1Nc1nc(OC2CCCC2)c2c(-c3ccc4nc(C)oc4c3)c[nH]c2n1 [Example 96, (4-(4-(cyclopentyloxy)-5-(2-methylbenzo[d]oxazol-6-yl)-7H-pyrrolo[2,3-d]pyrimidin-2-ylamino)-3-methoxyphenyl)(morpholino) methanone]
Second: COc1cc(C(=O)NCCN)ccc1Nc1nc(OC2CCCC2)c2c(-c3ccc4nc(C)oc4c3)c[nH]c2n1 [Example 100, N-(2-aminoethyl)-4-(4-(cyclopentyl-oxy)-5-(2-methylbenzo[d]oxazol-6-yl)-7H-pyrrolo[2,3-d]pyrimidin-2-ylamino)-3-methoxybenzamide]
The IC50 of the first is higher: 400 to 1000 nM for the first, under 100 nM for the second.

First: Cc1nc2ccc(-c3c[nH]c4nc(Nc5ccc(C(=O)N(C)C)cc5C)nc(OC5CCNCC5)c34)cc2o1 [Example 97, N,N,3-trimethyl-4-(5-(2-methylbenzo[d]oxazol-6-yl)-4-(piperidin-4-yloxy)-7H-pyrrolo [2,3-d]pyrimidin-2-ylamino) benzamide]
Second: Cc1nc2ccc(-c3c[nH]c4nc(Nc5ccc(C(=O)N(C)C)cc5C)nc(O[C@H]5CCOC5)c34)cc2o1 [Example 98, (S)-N,N,3-trimethyl-4-(5-(2-methylbenzo[d]oxazol-6-yl)-4-(tetrahydrofuran-3-yloxy)-7H-pyrrolo[2,3-d]pyrimidin-2-ylamino)benzamide]
The IC50 of the first is higher: 1000 to 10000 nM for the first, under 100 nM for the second. The second is the more potent here.

`Cc1nc2ccc(-c3c[nH]c4nc(Nc5ccc(C(=O)N(C)C)cc5C)nc(O[C@@H]5CCOC5)c34)cc2o1` [Example 99, (R)-N,N,3-trimethyl-4-(5-(2-methylbenzo[d]oxazol-6-yl)-4-(tetrahydrofuran-3-yloxy)-7H-pyrrolo[2,3-d]pyrimidin-2-ylamino)benzamide] and `Cc1nc2ccc(-c3c[nH]c4nc(Nc5ccc(C(=O)N(C)C)cc5C)nc(O[C@H]5CCCOC5)c34)cc2o1` [Example 104, (S)-N,N,3-trimethyl-4-(5-(2-methylbenzo[d]oxazol-6-yl)-4-(tetrahydro-2H-pyran-3-yloxy)-7H-pyrrolo[2,3-d]pyrimidin-2-ylamino)benzamide] cannot be ordered by IC50: under 100 nM for the first, under 100 nM for the second.

First: CCOc1ccc(-c2c[nH]c3nc(Nc4ccc(C(=O)NC)cc4OC)nc(OC4CCOCC4)c23)cn1 [Example 102, 4-(5-(6-ethoxypyridin-3-yl)-4-(tetrahydro-2H-pyran-4-yloxy)-7H-pyrrolo[2,3-d]pyrimidin-2-ylamino)-3-methoxy-N-methylbenzamide]
Second: CNC(=O)c1ccc(Nc2nc(OC3CCOCC3)c3c(-c4ccc(OC)nc4)c[nH]c3n2)c(OC)c1 [Example 119, 3-methoxy-4-(5-(6-methoxypyridin-3-yl)-4-(tetrahydro-2H-pyran-4-yloxy)-7H-pyrrolo[2,3-d]pyrimidin-2-ylamino)-N-methylbenzamide]
The IC50 of the first is higher: 100 to 400 nM for the first, under 100 nM for the second. The second is the more potent here.

First: COc1ccccc1Nc1nc(OC2CCCC2)c2c(-c3ccc4nc(C)oc4c3)c[nH]c2n1 [Example 103, 4-(cyclopentyloxy)-N-(2-methoxyphenyl)-5-(2-methylbenzo[d]oxazol-6-yl)-7H-pyrrolo[2,3-d]pyrimidin-2-amine]
Second: COCCNC(=O)c1ccc(Nc2nc(OC3CCOCC3)c3c(-c4ccc5nc(C)oc5c4)c[nH]c3n2)c(OC)c1 [Example 120, 3-methoxy-N-(2-methoxyethyl)-4-(5-(2-methylbenzo[d]oxazol-6-yl)-4-(tetrahydro-2H-pyran-4-yloxy)-7H-pyrrolo[2,3-d]pyrimidin-2-ylamino)benzamide]
The IC50 of the first is higher: 100 to 400 nM for the first, under 100 nM for the second. The second is the more potent here.

`Cc1cc(C(=O)N(C)C)ccc1Nc1nc(OC2CCOCC2)c2c(-c3cccc(S(C)(=O)=O)c3)c[nH]c2n1` [Example 105, N,N,3-trimethyl-4-(5-(3-(methylsulfonyl)phenyl)-4-(tetrahydro-2H-pyran-4-yloxy)-7H-pyrrolo[2,3-d]pyrimidin-2-ylamino)benzamide] and `Cc1cc(-c2c[nH]c3nc(Nc4ccc(C(=O)N(C)C)cc4C)nc(OC4CCOCC4)c23)ccn1` [Example 117, N,N,3-trimethyl-4-(5-(2-methyl-pyridin-4-yl)-4-(tetrahydro-2H-pyran-4-yloxy)-7H-pyrrolo[2,3-d]pyrimidin-2-ylamino)benzamide] cannot be ordered by IC50: under 100 nM for the first, under 100 nM for the second.

`CNC(=O)c1ccc(Nc2nc(OC3CCOCC3)c3c(-c4cccc(S(C)(=O)=O)c4)c[nH]c3n2)c(OC)c1` [Example 106, 3-methoxy-N-methyl-4-(5-(3-(methylsulfonyl)phenyl)-4-(tetrahydro-2H-pyran-4-yloxy)-7H-pyrrolo[2,3-d]pyrimidin-2-ylamino)benzamide] and `CNC(=O)c1ccc(Nc2nc(OC3CCOCC3)c3c(-c4ccncc4)c[nH]c3n2)c(OC)c1` [Example 114, 3-methoxy-N-methyl-4-(5-(pyridin-4-yl)-4-(tetrahydro-2H-pyran-4-yloxy)-7H-pyrrolo[2,3-d]pyrimidin-2-ylamino)benzamide] cannot be ordered by IC50: under 100 nM for the first, under 100 nM for the second.

Compared with `Cc1cc(C(=O)N(C)C)ccc1Nc1nc(OC2CCOCC2)c2c(-c3cncnc3)c[nH]c2n1` [Example 107, N,N,3-trimethyl-4-(5-(pyrimidin-5-yl)-4-(tetrahydro-2H-pyran-4-yloxy)-7H-pyrrolo[2,3-d]pyrimidin-2-ylamino)benzamide], `Cc1cc(C(=O)N(C)C)ccc1Nc1nc(OC2CCOCC2)c2c(-c3cnn(C)c3)c[nH]c2n1` [Example 112, N,N,3-trimethyl-4-(5-(1-methyl-1H-pyrazol-4-yl)-4-(tetrahydro-2H-pyran-4-yloxy)-7H-pyrrolo[2,3-d]pyrimidin-2-ylamino)benzamide] is lower in IC50: 100 to 400 nM for the first, under 100 nM for the second. The second is the more potent here.

Compared with `CCOc1ccc(-c2c[nH]c3nc(Nc4ccc(C(=O)N(C)C)cc4C)nc(OC4CCOCC4)c23)cn1` [Example 109, 4-(5-(6-ethoxypyridin-3-yl)-4-(tetrahydro-2H-pyran-4-yloxy)-7H-pyrrolo[2,3-d]pyrimidin-2-ylamino)-N,N,3-trimethylbenzamide], `Cc1cc(C(=O)N(C)C)ccc1Nc1nc(OC2CCOCC2)c2c(-c3ccn(C)n3)c[nH]c2n1` [Example 113, N,N,3-trimethyl-4-(5-(1-methyl-1H-pyrazol-3-yl)-4-(tetrahydro-2H-pyran-4-yloxy)-7H-pyrrolo[2,3-d]pyrimidin-2-ylamino)benzamide] is higher in IC50: under 100 nM for the first, 400 to 1000 nM for the second. The first is the more potent here.

`CNC(=O)c1ccc(Nc2nc(OC3CCCC3)c3c(-c4ccc5nc(N)[nH]c5c4)c[nH]c3n2)c(OC)c1` [Example 110, 4-(5-(2-amino-1H-benzo[d]imidazol-6-yl)-4-(cyclopentyloxy)-7H-pyrrolo[2,3-d]pyrimidin-2-ylamino)-3-methoxy-N-methylbenzamide] and `Cc1cc(C(=O)N(C)C)ccc1Nc1nc(OC2CCOCC2)c2c(-c3ccc4nc(N)[nH]c4c3)c[nH]c2n1` [Example 116, 4-(5-(2-amino-1H-benzo[d]imidazol-6-yl)-4-(tetrahydro-2H-pyran-4-yloxy)-7H-pyrrolo[2,3-d]pyrimidin-2-ylamino)-N,N,3-trimethylbenzamide] cannot be ordered by IC50: under 100 nM for the first, under 100 nM for the second.

First: Cc1cc(C(=O)N(C)C)ccc1Nc1nc(OC2CCOCC2)c2c(-c3nnco3)c[nH]c2n1 [Example 111, 4-(5-(1,3,4-oxadiazol-2-yl)-4-(tetrahydro-2H-pyran-4-yloxy)-7H-pyrrolo[2,3-d]pyrimidin-2-ylamino)-N,N,3-trimethylbenzamide]
Second: Cc1cc(C(=O)N(C)C)ccc1Nc1nc(OC2CCOCC2)c2c(-c3ncco3)c[nH]c2n1 [Example 115, N,N,3-trimethyl-4-(5-(oxazol-2-yl)-4-(tetrahydro-2H-pyran-4-yloxy)-7H-pyrrolo[2,3-d]pyrimidin-2-ylamino)benzamide]
The IC50 of the first is higher: 1000 to 10000 nM for the first, 400 to 1000 nM for the second. The second is the more potent here.

`CNC(=O)c1ccc(Nc2nc(OC)c3c(-c4ccc(OC)nc4)c[nH]c3n2)c(OC)c1` [Example 118, 3-methoxy-4-(4-methoxy-5-(6-methoxypyridin-3-yl)-7H-pyrrolo [2,3-d]pyrimidin-2-ylamino)-N-methylbenzamide] and `CNC(=O)c1ccc(-c2c[nH]c3nc(Nc4ccc(C(=O)NC)cc4OC)nc(OC)c23)cc1` [Example 124, 3-methoxy-4-(4-methoxy-5-(4-(methylcarbamoyl)phenyl)-7H-pyrrolo[2,3-d]pyrimidin-2-ylamino)-N-methylbenzamide] fall in the same range of IC50: 100 to 400 nM for the first, 100 to 400 nM for the second.

Compared with `Cc1nc2ccc(-c3c[nH]c4nc(Nc5ccc(C(=O)N(C)C)cc5C)nc(O[C@@H]5CCCOC5)c34)cc2o1` [Example 121, (R)-N,N,3-trimethyl-4-(5-(2-methylbenzo[d]oxazol-6-yl)-4-(tetrahydro-2H-pyran-3-yloxy)-7H-pyrrolo[2,3-d]pyrimidin-2-ylamino)benzamide], `COc1cc(C(=O)NCCN(C)C)ccc1Nc1nc(OC2CCOCC2)c2c(-c3ccc4nc(C)oc4c3)c[nH]c2n1` [Example 127, N-(2-(dimethylamino)ethyl)-3-methoxy-4-(5-(2-methylbenzo[d]oxazol-6-yl)-4-(tetrahydro-2H-pyran-4-yloxy)-7H-pyrrolo[2,3-d]pyrimidin-2-ylamino)benzamide] is lower in IC50: 100 to 400 nM for the first, under 100 nM for the second.

First: CNC(=O)c1ccc(Nc2nc(OC3CCOCC3)c3c(-c4cn[nH]c4)c[nH]c3n2)c(OC)c1 [Example 122, 4-(5-(1H-pyrazol-4-yl)-4-(tetrahydro-2H-pyran-4-yloxy)-7H-pyrrolo[2,3-d]pyrimidin-2-ylamino)-3-methoxy-N-methylbenzamide]
Second: CNC(=O)c1ccc(Nc2nc(OC3CCOCC3)c3c(-c4ccc(N(C)C)nc4)c[nH]c3n2)c(OC)c1 [Example 126, 4-(5-(6-(dimethylamino)pyridin-3-yl)-4-(tetrahydro-2H-pyran-4-yloxy)-7H-pyrrolo[2,3-d]pyrimidin-2-ylamino)-3-methoxy-N-methylbenzamide]
The IC50 of the first is lower: under 100 nM for the first, 400 to 1000 nM for the second.

`CNC(=O)c1ccc(-c2c[nH]c3nc(Nc4ccc(C(=O)NC)cc4OC)nc(OC4CCOCC4)c23)cc1` [Example 123, 3-methoxy-N-methyl-4-(5-(4-(methylcarbamoyl)phenyl)-4-(tetrahydro-2H-pyran-4-yloxy)-7H-pyrrolo[2,3-d]pyrimidin-2-ylamino) benzamide] and `CNC(=O)c1ccc(Nc2nc(OC(C)C)c3c(-c4ccc5nc(C)oc5c4)c[nH]c3n2)c(OC)c1` [Example 125, 4-(4-isopropoxy-5-(2-methylbenzo[d]oxazol-6-yl)-7H-pyrrolo[2,3-d]pyrimidin-2-ylamino)-3-methoxy-N-methylbenzamide] cannot be ordered by IC50: under 100 nM for the first, under 100 nM for the second.
